Laboratory results published in US7851467B2, “Carbamate compounds as 5-HT4 receptor agonists” (Theravance, Inc., priority 2005, dated 2010).

Molecular target: T1, human 5-HT4(c) receptor (Homo sapiens, UniProt Q13639)
T1 construct: expressed in transfected cells; host or cells: HEK-293
Experiment: Whole-cell cAMP accumulation flashplate assay with HEK-293 cells expressing human 5-HT4(c) receptors
Format: cell-based
Details: cell line (1) having a density of about 0.5-0.6 μmol/mg protein, read-out: pEC50 value (converted)
Experimental: Assay 3: Whole-Cell cAMP Accumulation Flashplate Assay with HEK-293 Cells Expressing Human 5-HT4(c) Receptors
In this assay, the functional potency of a test compound was determined by measuring the amount of cyclic AMP produced when HEK-293 cells expressing 5-HT4 receptors were contacted with different concentrations of test compound.
HEK-293 (human embryonic kidney) cells stably-transfected with cloned human 5-HT4(c) receptor cDNA were prepared expressing the receptor at two different densities: (1) at a density of about 0.5-0.6 pmol/mg protein, as determined using a [^3H]-GR113808 membrane radioligand binding assay, and (2) at a density of about 6.0 pmol/mg protein. […]
Cells were grown to roughly 60-80% confluency. […] The cells were counted with a Coulter counter (count above 8 μm, flask yield was 1-2×10^7 cells/flask). […]
Cells were grown and prepared as described above. […] Bound radioactivity was quantified by scintillation proximity spectroscopy using the Topcount (Packard BioScience Co., Meriden, Conn.).
The amount of cAMP produced per mL of reaction was extrapolated from the cAMP standard curve, according to the instructions provided in the manufacturer's user manual. Data were analyzed by nonlinear regression analysis with the GraphPad Prism Software package using the 3-parameter sigmoidal dose-response model (slope constrained to unity). […]

T1 sequence (Q13639 1-380 isoform Q13639-4): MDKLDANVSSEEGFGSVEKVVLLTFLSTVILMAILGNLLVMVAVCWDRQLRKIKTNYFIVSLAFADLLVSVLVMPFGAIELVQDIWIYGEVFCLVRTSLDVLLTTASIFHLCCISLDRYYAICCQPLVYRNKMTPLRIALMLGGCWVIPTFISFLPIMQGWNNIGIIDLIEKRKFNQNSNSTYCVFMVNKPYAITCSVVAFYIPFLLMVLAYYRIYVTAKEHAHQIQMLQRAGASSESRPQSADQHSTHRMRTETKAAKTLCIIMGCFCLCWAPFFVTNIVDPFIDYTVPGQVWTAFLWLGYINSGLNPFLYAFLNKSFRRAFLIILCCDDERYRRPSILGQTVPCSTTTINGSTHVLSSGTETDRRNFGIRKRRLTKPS

Q: For CC(C)n1c(=O)n(C(=O)N[C@H]2C[C@H]3CC[C@@H](C2)N3CCCOC(=O)N2CCN(C(=O)C3CCCO3)CC2)c2ccccc21 (stereo partly drawn) [Example 1, 4-(tetrahydrofuran-2-carbonyl)piperazine-1-carboxylic acid 3-{(1S,3R,5R)-3-[(3-isopropyl-2-oxo-2,3-dihydrobenzoimidazole-1-carbonyl)amino]-8-aza-bicyclo[3.2.1]oct-8-yl}propyl ester], which EC50 is on record?
A: The EC50 was 3.98 nM.
